The source of these data is patent publication US4769364A, “Pyrimidin-5-yl phosphoric acid ester and thionophosphoric acid ester pesticides” (priority 1985, dated 1988).

Data set [1] is described as follows: Toxicity to warm-blooded animals, LD50 on rats (oral). The conditions noted are these: rat, in vivo, oral (stomach tube), dissolved in polyethylene glycol LUTROL. As for the experimental part: Toxicity to warm-blooded animals, LD50 values on rats (oral)
The values were determined in the customary manner. The active compounds were dissolved in polyethylene glycol LUTROL (trademark of BASF AG, Ludwigshafen, Federal Republic of Germany) and the solution was administered to rats with a stomach tube.

The test system of a further data set is Phorbia antiqua maggots. The data set is described as follows: Critical concentration test/soil insects: Phorbia antiqua maggots (in the soil). Format: in vivo. The note with it: 2.5 ppm active compound in soil; 2 to 7 days; 100% = all test insects killed. Here is the method: (§1) Critical concentration test/soil insects
Test insect: Phorbia antiqua maggots (in the soil)
(§2) Solvent: 3 parts by weight of acetone
Emulsifier: 1 part by weight alkylaryl polyglycol ether.
(§3) To produce a suitable preparation of active compound, 1 part by weight of active compound is mixed with the stated amount of solvent, the stated amount of emulsifier is added and the concentrate is diluted with water to the desired concentration.
The preparation of active compound is intimately mixed with soil. The concentration of the active compound in the preparation is of practically no importance, only the amount by weight of active compound per unit volume of soil, which is given in ppm (=mg/liter) being decisive. The soil is filled into pots and the pots are left to stand at room temperature.
After 24 hours, the test insects are introduced into the treated soil, and after a further 2 to 7 days the degree of effectiveness of the active compound is determined in % by counting the dead and live test insects. The degree of effeciveness is 100% if all the test insects have been killed and is 0% if just as many test insects are still alive as in the case of the untreated control.

For data set [2], the system named is Diabrotica balteata larvae. The data set is described as follows: Critical concentration test/soil insects: Diabrotica balteata larvae in the soil. The conditions noted are these: 168 h, 2.5 ppm active compound in soil, after a further 7 days, 100% = all test insects killed, read-out: degree of effectiveness. Format: in vivo. As for the experimental part: as §1
Test insect: Diabrotica balteata larvae in the soil
as §2
(§4) Emulsifier: 1 part by weight of alkylaryl polyglycol ether.
as §3
The preparation of active compound is intimately mixed with soil. The concentration of the active compound in the preparation is of practically no importance, only the amount by weight of active compound per unit volume of soil, which is given in ppm (=mg/liter) being decisive. The soil is filled into 0.5 liter pots and these are left to stand at 20° C.
Immediately after setting up the test, 6 pregerminated grains of corn are placed in each pot. After 2 days, the corresponding test insects are introduced into the treated soil. After a further 7 days the degree of effectiveness of the active compound is determined in % by counting the dead and live test insects. The degree of effectiveness is 100% if all the test insects have been killed and is 0% if just as many test insects are still alive as in the case of the untreated control.

Another data set deals with Meloidogyne incognita. The data set is described as follows: Critical concentration test/nematodes: Meloidogyne incognita. Format: in vivo. The conditions noted are these: 20 ppm active compound in soil; lettuce, four weeks, 27° C.; 100% = infestation completely avoided. Here is the method:
Critical concentraion test/nematodes
Test nematode: Meloidogyne incognita
as §2, §4, §3
The preparation of active compound is intimately mixed with soil which is heavily infested with the test nematodes. The concentration of the active compound in the preparation is of practically no importance, only the amount of active compound per unit volume of soil, which is given in ppm, being decisive. The treated soil is filled into pots, lettuce is sown in and the pots are kept at a greenhouse temperature of 27° C.
After four weeks, the lettuce roots are examined for infestation with nematodes (root galls), and the degree of effectiveness of the active compound is determined in %. The degree of effectiveness is 100% if infestation is completely avoided and is 0% if the infestation is just as high as in the case of the control plants in untreated soil which has been infested in the same manner.

The test system of data set [3] is Lucilia cuprina OP res. larvae. In words: Test with Lucilia cuprina OP res. larvae. The conditions noted are these: 10 ppm active compound, 24 hours, read-out: destruction. Format: in vivo. Here is the method:
Test with Lucilia cuprina OP res. larvae
35 parts by weight of ethylene glycol monoethyl ether
35 parts by weight of nonylphenol polyglycol ether.
To produce a suitable preparation of active compound, three parts by weight of active compound are mixed with seven parts by weight of the abovementioned solvent mixture and the concentrate thus obtained is diluted with water to the particular desired concentration.
About 20 Lucilia cuprina res. larvae are introduced into a test tube which contains approx. 1 cm^2 of horse muscle and 0.5 ml of the preparation of active compound. After 24 hours, the degree of destruction is determined.

In another data set the test system is Psoroptes ovis. In words: Test with Psoroptes ovis. Type of data set: in vivo. The note with it: 10 ppm active compound, 24 hours, read-out: destruction. Here is the method: 35 parts by weight of ethylene glycol monomethyl ether
35 parts by weight of nonylphenol polyglycol ether
To produce a suitable preparation of active compound, three parts by weight of active compound are mixed with seven parts by weight of the abovementioned solvent mixture and the concentrate thus obtained is diluted with water to the desired concentration.
About 10-25 Psoroptes ovis are introduced into 1 ml of the active compound preparation to be tested, this having been pipetted into tablet nests of a deep-drawn package. After 24 hours, the degree of destruction is determined.

Usually LD50 stands for the dose expected to kill half of the subjects tested. As to `CCOP(=S)(OCC(F)(F)F)Oc1cnc(C(C)(C)C)nc1` (stereo not shown) [Example 1, O-ethyl O-(2,2,2-trifluoroethyl) O-(2-tert.-butyl-pyrimidin-5-yl)thionophosphate], in data set [1], the median lethal dose (LD50) was 100 to 250 mg/kg. Besides, the degree of effectiveness with Phorbia antiqua maggots and in the data set with Meloidogyne incognita was 95% each time. Also, the mortality at 2.5 ppm in data set [2] was determined as 100%.
With `CCCOP(=S)(OCC)Oc1cnc(C(C)C)nc1` (stereo not shown) [known compound (B), reference compound], the degree of effectiveness came to 100% in the data set with Phorbia antiqua maggots and 95% in the data set with Meloidogyne incognita.
In data set [1], `CCOP(=S)(OCC(F)(F)C(F)F)Oc1cnc(C(C)(C)C)nc1` (stereo not shown) [Example 2] had a median lethal dose (LD50) of 50 mg/kg. Moreover, the degree of effectiveness in the data set on Phorbia antiqua maggots and in the data set on Meloidogyne incognita was 100% in each case. Further, the mortality at 2.5 ppm in data set [2] came out at 100%. Also, the mortality at 10 ppm (in data set [3]; in the data set with Psoroptes ovis) was 100% in each case.
`CCOP(=S)(OCC)Oc1cnc(C(C)(C)C)nc1` [Comparison compound (A), reference compound] registered an LD50 in data set [1] of 1 to 2.5 mg/kg. Besides, the degree of effectiveness with Phorbia antiqua maggots and in the data set with Meloidogyne incognita was 100% each time. For the same compound, in data set [2], the mortality at 2.5 ppm stood at 100%.
